US20080039522A1, “Composition Containing a Complex Comprising a Metal Ion and a Carboxylate Ligand Having Anti-Inflammatory Activity” (Medical Therapies Limited, priority 2004, published 2008)

Assays:
[1] = EPR spectroscopic determination of Cu(II) monomer / dissociation of the complex in formulations; assay type: physicochemical; conditions: percentage of the total amount of Cu in the composition; X-band EPR, 4 K
Procedure: The synthesis of [Cu2(Indo)4(OH2)2] may result in a product containing a small amount of monomer (typically 5% or less), and this monomer may or may not contain Indo Thus a composition containing [Cu2(Indo)4(OH2)2] may or may not contain a small amount of a Cu(II) monomer containing Indo.
The relative amounts of the Cu(II) monomer in samples of various compositions containing the complex [Cu2(Indo)4(OH2)2] were determined as described below. […]
EPR Spectroscopy. Low temperature (4-110 K) X-band EPR spectra of the compositions containing [Cu2(Indo)4(OH2)2] were measured at X-band frequencies (˜9.5 GHz) using a Bruker EMX EPR spectrometer equipped with a standard ER4120 X band cavity, EMX 035M NMR gaussmeter, EMX 032T field controller, EMX 081 magnet power supply, Bruker EMX 048T microwave bridge control and BVT2000 variable temperature unit and Oxford Instruments E900 continuous flow cryostat (for low temperature data collection). Low temperature X-band EPR Cu(II) spectra of samples of [Cu2(Indo)4(OH2)2] containing less than 0.47 mM Cu(II) were measured using a Bruker ESP 300 spectrometer equipped with a Hewlett Packard 5352B microwave frequency counter, Bruker ER 085C magnet power supply, Bruker ER 032 magnet field control, Bruker ER 023M signal channel and Bruker ESP 1600-1048 microwave bridge controller. […]

[2] = tested on: Sprague-Dawley rats; test: Acute gastric ulceration after oral administration; assay type: in vivo, rat; conditions: rat, in vivo
Procedure: Gastrointestinal Ulceration: To assess gastric damage, rats (n=4 per group) were fasted overnight with free access to water prior to the oral administration (non-anaesthetized) of the Test Samples or Test Compositions via oral gavage. The controls were dosed with CMC (2%) solution. Three hours after dosing, the rats were euthanised and the stomach was excised and opened by incision along the greater curvature. The stomach was rinsed, submerged in 10% formaldehyde for 1 h and examined to determine the extent of macroscopic gastric damage.
The total volume of the MCT or carbopol paste compositions administered per dose in the assessment of gastrointestinal ulceration was no more than 0.5 g.
In order to illustrate the adverse effects of decomposition of the copper complex in the formulation, the gastric toxicity of IndoH, Cu-acetate, a physical mixture of Cu-acetate and IndoH and [Cu2(Indo)4(DMF)2] were tested at equivalent doses of Indo (10 mg kg^−1) and/or Cu in the MCT paste or a 2% (w/v) aqueous solution of carboxymethylcellulose (CMC). The MCT paste formulations were prepared as described in Example 3 but using IndoH, Cu-acetate, a physical mixture of Cu-acetate and IndoH, or [Cu2(Indo)4(DMF)2] instead of [Cu2(Indo)4(OH2)2]. The gastric toxicity was tested as described above. The results of these experiments are illustrated in FIG. 3.
In further experiments designed to test the toxicity of solutions of the Cu complex, the [Cu2(Indo)4(DMF)2] complex was dissolved in DMF and gastric toxicities were assessed. […] Similar results would be expected using other complexes, including [Cu2(Indo)4(OH2)2], in a non-colloidal solution.

[3] = tested on: Sprague-Dawley rats; test: Inhibition of carrageenan-induced paw edema, oral administration; assay type: in vivo, rat; conditions: oral, IndoH 10 mg kg^−1, complex 11 mg kg^−1, mean(sem)
Procedure: Inhibition of Carrageenan-Induced Paw Edema: Rats were orally administered (non-anaesthetized) the Test Samples or Test Compositions via oral gavage. The control cohort was dosed solely with CMC (2%) solution. […] Exp. Ther. 1965, 150, 165-171). The thickness of the paw was measured at the ventral dorsal footpad using digital calipers prior to dosing and at 3 and 5 h after carrageenan injection. The change in the measured parameter (ΔP) for thickness of paw (Δmm) at n=3- and 5-hours after carrageenan injection is given by: ΔP=Pt=n-Pt=0 (I) The percent inhibition (% inhibition) at 3- or 5-hours in the measured parameter (P) due to the treatment is given as the difference between the % increase in the value of P in the control group and the treatment group at n=3- or 5-hours, with the % increase in the value of P given by: […]

[4] = tested on: Sprague-Dawley rats; test: Observation of the site of the subcutaneous injection; assay type: in vivo, rat; conditions: subcutaneous, in MCT oil, all doses
Procedure: In Vivo Anti-inflammatory Activity and Gastric Toxicity. Groups of four rats were used for all studies. All doses were calculated as equivalent concentrations of Indo. […] For subcutaneous and intramuscular administration, rats were injected with 125-200 μL volumes of the test compositions (IndoH or [Cu2(Indo)4(OH2)2] in MCT oil). The control cohort was injected with equivalent volumes of neat MCT. Subcutaneous injections were made in the lower dorsal surface and intramuscular injections were made in the right hind thigh muscle. Inflammation was induced 1 h after dosing by injection of the formulation by an injection of carrageenan (0.1 mL, 1% w/v in isotonic saline) into the plantar region of the hind paw.

COc1ccc2c(c1)c(CC(=O)[O-])c(C)n2C(=O)c1ccc(Cl)cc1.COc1ccc2c(c1)c(CC(=O)[O-])c(C)n2C(=O)c1ccc(Cl)cc1.COc1ccc2c(c1)c(CC(=O)[O-])c(C)n2C(=O)c1ccc(Cl)cc1.COc1ccc2c(c1)c(CC(=O)[O-])c(C)n2C(=O)c1ccc(Cl)cc1.O.O.[Cu+2].[Cu+2] [[Cu2(Indo)4(OH2)2]]
Cu(II) monomer (%) [1]: ^aThe technique is not applicable to dry powders, however, solid-state [Cu2(Indo)4L2] (L = OH2) contains <1% Cu(II) monomer fraction. | gastric toxicity as % of that of an equivalent dose of IndoH [2]: approximately 8% | reduction of gastric toxicity versus free IndoH [2]: 50% | percent inhibition in rat hind-paw diameter change, 3-hr ([3]; 3 h post carrageenan): 30(4)% | percent inhibition in rat hind-paw diameter change, 5-hr ([3]; 5 h post carrageenan): 31(3)% | adverse effect at the site of the injection [4]: None of the rats exhibited soreness, swelling, redness or any other adverse effect
